In US9078928B2, “Conjugated molecules comprising a peptide derived from the CD4 receptor coupled to a polyanionic polypeptide for the treatment of AIDS” (Institut Pasteur, priority 2011, dated 2015):

Columns and labels:
Assay type in all cases: cell-based
X4-tropic HIV-1-LAI = experiment: Antiviral assay in PHA-P-activated PBMC, RT activity in supernatant at day 7 (Example 3); settings: mean of triplicate; for ED70 VIH-1-LAI(X4) Average: effective dose to inhibit 70% of HIV-1 replication; for ED90 VIH-1-LAI(X4) Average: effective dose to inhibit 90% of HIV-1 replication
Description: The antiviral experiment have been performed as described in WO/2009/098147 and Nature Chemical Biology, 2009, 5(10), 743-748.
(§1) Briefly, the X4-tropic HIV-1-LAI (Barre-Sinoussi, Science 220, 868-71, 1983) or the R5-tropic HIV-1/Ba-L (Gartner et al, Science 233, 215-9, 1986) strains were amplified and titrated in vitro on Phytohemaglutinin-P (PHA-P)-activated peripheral blood mononuclear cells (PBMC). Tissue culture infectious doses were calculated using Kärber's formula (Kärber, Arch. Exp. Path. Pharmak. 162, 480-483, 1931). For the antiviral assay, PHA-P-activated PBMC were pre-treated for 30 minutes with six concentrations of each drug (1:5 dilutions between 0.5 μM and 160 pM) and infected with one hundred 50% tissue culture infectious doses (TCID50) of either the X4-tropic LAI or R5-tropic Ba-L strain. Drugs were maintained throughout the culture, and cell supernatants were collected at day 7 post-infection and stored at −20° C. Azidothymidine (AZT) was used in these experiments as an internal control. Viral replication was measured by quantifying reverse transcriptase (RT) activity in cell culture supernatants using the RetroSys HIV RT kit (Innovagen). In parallel, cytotoxicity of the samples was evaluated in uninfected PHA-P-activated PBMC by a methyltetrazolium salt (MTT) assay on day 7. Experiments were performed in triplicate and 50, 70 and 90% effective doses and cytotoxic doses were calculated using SoftMaxPro software.
PHA-P-activated PBMC were treated with each of the drug under investigation (1:5 dilutions between 0.5 μM and […]) and infected with 100 TCID50 of either HIV-1-LAI (X4 tropic) or /Ba-L (R5 tropic) strain. Molecules and viruses were maintained throughout the culture, and cell supernatants were collected at day 7 post-infection from which reverse transcriptase activity was quantified. Experiments were performed in triplicate and 50, 70 and 90% effective doses (ED), in nM (±S.D.) were calculated using SoftMaxPro software.

R5-tropic HIV-1/Ba-L = experiment: as above; settings: mean of triplicate; for ED70 VIH-1/Ba-L(R5) Average: effective dose to inhibit 70% of HIV-1 replication; for ED90 VIH-1/Ba-L(R5) Average: effective dose to inhibit 90% of HIV-1 replication
Description: as §1, with “For the antiviral assay, PHA-P-activated PBMC were pre-treated for 30 minutes with six concentrations of each drug (1:5 dilutions between 0.5 μM and 160 pM) and infected with one hundred 50% tissue culture infectious doses (TCID50) of either the X4-tropic LAI or R5-tropic Ba-L strain.” left out
Molecules and viruses were maintained throughout the culture, and cell supernatants were collected at day 7 post-infection from which reverse transcriptase activity was quantified. Experiments were performed in triplicate and 50, 70 and 90% effective doses (ED), in nM (±S.D.) were calculated using SoftMaxPro software.

clinical HIV-1 isolates = experiment: Antiviral assay on the series of clinical HIV-1 isolates, summary in text (Example 4); settings: primary strains of Table 5
From the text: The antiviral assay was extended to a series of more clinically relevant primary strains, including 92UG029, SF162, 92US723, 96USHIPS4, 92HT599 and 98IN017.
Phytohemagglutinin (PHA)-P-activated PBMCs were infected either with the reference lymphotropic HIV-1/LAI strain (Barre-Sinoussi, et al., 1983) or with the reference macrophage-tropic HIV-1/Ba-L strain (Gartner, et al., 1986). These viruses were amplified in vitro with PHA-P-activated blood mononuclear cells. Viral stocks (including clinical isolates) were titrated using PHA-P-activated PBMCs, and 50% tissue culture infectious doses (TCID50) were calculated using Kärber's formula (Kärber, 1931). Viruses (125 TCID50) were incubated for 30 min with five concentrations (1:5 dilutions between 500 nM and 320 pM) of each of the molecules to be tested and added to 150 000 PBMCs (m.o.i.˜0.001). […] Viral replication was measured by quantifying reverse transcriptase (RT) activity in the cell culture supernatants using the Lenti RT Activity Kit (Cavisi) and AZT was used as reference anti-HIV-1 molecule. In parallel, cytotoxicity was evaluated on day 7 in uninfected PHA-P-activated PBMC using a colorimetric methyl-tetrazolium salt (MTS/PMS) assay (Promega). Experiments were performed in triplicate and 50, 70 and 90% effective doses (ED) were calculated using SoftMaxPro software.

Substance	ED70 VIH-1-LAI(X4) Average (X4-tropic HIV-1-LAI)	ED90 VIH-1-LAI(X4) Average (X4-tropic HIV-1-LAI)	ED70 VIH-1/Ba-L(R5) Average (R5-tropic HIV-1/Ba-L)	ED90 VIH-1/Ba-L(R5) Average (R5-tropic HIV-1/Ba-L)	antiviral activity against clinical isolates (in words) (clinical HIV-1 isolates)
NH2-(CH2)3-CO-S-Asu-D-Asu-S-Asu-D-Asu-F-Asu-F-D-Asu-S [P3Asu]	>0.5 µM	>0.5 µM	>0.5 µM	>0.5 µM	
NH2-(CH2)3-CO-S-YSO3-D-YSO3-S-YSO3-D-YSO3-S-YSO3-D-YS03-S (SXDXSXDXSXDXS; non-natural residues) [P3YSO3]					only poorly active or inactive
NH2-(CH2)3-CO-S-pF-D-pF-S-pF-D-pF-S-pF-D-pF-S [P3pF]	>0.5 µM	>0.5 µM	>0.5 µM	>0.5 µM	
